A short description of series [1]: Inhibition of Hydrogen potassium ATPase (unknown origin). More on the design: species or system Homo sapiens.
For series [2], the target named is T1, Polyunsaturated fatty acid lipoxygenase ALOX15 (Homo sapiens, UniProt P16050).
T1 sequence (P16050 whole entry): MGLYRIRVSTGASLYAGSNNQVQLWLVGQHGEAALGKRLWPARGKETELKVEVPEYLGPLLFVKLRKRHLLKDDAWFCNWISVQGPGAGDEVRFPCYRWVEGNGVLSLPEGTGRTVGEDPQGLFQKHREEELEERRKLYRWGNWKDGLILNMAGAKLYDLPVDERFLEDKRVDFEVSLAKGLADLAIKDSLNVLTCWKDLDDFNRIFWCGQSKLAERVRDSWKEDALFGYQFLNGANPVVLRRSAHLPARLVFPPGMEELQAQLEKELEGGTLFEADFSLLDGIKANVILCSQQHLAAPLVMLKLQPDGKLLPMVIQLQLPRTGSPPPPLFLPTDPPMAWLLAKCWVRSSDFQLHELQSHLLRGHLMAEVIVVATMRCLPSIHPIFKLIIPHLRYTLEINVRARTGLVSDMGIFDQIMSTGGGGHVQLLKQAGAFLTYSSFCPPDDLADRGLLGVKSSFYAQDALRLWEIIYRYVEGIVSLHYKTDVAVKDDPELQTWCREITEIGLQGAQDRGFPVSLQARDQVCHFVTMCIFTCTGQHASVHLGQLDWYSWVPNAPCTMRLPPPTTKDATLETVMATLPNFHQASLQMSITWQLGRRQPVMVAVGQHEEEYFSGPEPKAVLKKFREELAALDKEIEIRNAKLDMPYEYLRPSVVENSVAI
As to the kind of experiment: Inhibition of 15-LOX (unknown origin).

Series [3] has as its target T2, Gastrin/cholecystokinin type B receptor (Homo sapiens, UniProt P32239).
T2 sequence (P32239 whole entry): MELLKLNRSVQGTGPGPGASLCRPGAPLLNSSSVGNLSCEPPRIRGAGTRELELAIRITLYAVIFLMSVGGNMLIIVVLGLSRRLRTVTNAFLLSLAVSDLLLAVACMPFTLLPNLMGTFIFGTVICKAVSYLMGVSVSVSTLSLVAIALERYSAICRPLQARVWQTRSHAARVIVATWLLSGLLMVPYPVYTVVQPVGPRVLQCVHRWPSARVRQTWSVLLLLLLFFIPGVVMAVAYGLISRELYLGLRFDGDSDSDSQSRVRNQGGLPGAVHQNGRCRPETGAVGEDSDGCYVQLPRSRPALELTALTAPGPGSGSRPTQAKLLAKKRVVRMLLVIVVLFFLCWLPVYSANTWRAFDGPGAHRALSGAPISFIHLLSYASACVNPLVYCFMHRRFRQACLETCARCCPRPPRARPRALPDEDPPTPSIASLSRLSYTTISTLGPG
As to the kind of experiment: Antagonist activity at human CCKBR. It counts as functional.

For the next series, the system named is Mus musculus. Briefly: Anti-ulcerogenic activity in ethanol-induced gastric ulcer mouse model assessed as reduction in ulcer formation at 350 mg/kg. It counts as functional. Further details: scale not given: the % may be the effect or the level left.
Series [4] has as its system Rattus norvegicus. Briefly: Gastric ulcerogenic activity in ethanol-induced rat model assessed as reduction in mucosal damage at 50 mg/kg, po relative to control. The series is classed as functional. Further details: scale not given: the % may be the effect or the level left.
In series [5] the test system is Rattus norvegicus. Briefly: Protection against stress-induced Wistar rat model assessed as inhibition of gastric lesion at 500 ug/kg, po measured after 6 hrs relative to control. It counts as functional. More on the design: scale not given: the % may be the effect or the level left.
The nature of series [6]: Acute toxicity in po dosed mouse assessed as lethal dose. It counts as organism-based. The note with it: in vivo.
In series [7] the test system is Rattus norvegicus. As to the kind of experiment: Gastric ulcerogenic activity in ethanol-induced rat model assessed as reduction in gastric lesion at 10 mg/kg, po relative to control. More on the design: scale not given: the % may be the effect or the level left. The series is classed as functional.
Series [8] has as its system Rattus norvegicus. As to the kind of experiment: Gastric ulcerogenic activity in ethanol-induced rat model assessed as reduction in gastric lesion at 5 mg/kg, po relative to control. The series is classed as functional. More on the design: scale not given: the % may be the effect or the level left.
Series [9] relates to Helicobacter pylori. Briefly: Antibacterial activity against Helicobacter pylori NCTC 11637 assessed as reduction in bacterial growth incubated for 24 hrs by broth micro-dilution method. It counts as functional. (Broth dilution looks for growth in wells or tubes with falling amounts of substance.)
In series [10] the test system is Helicobacter pylori. Briefly: Antibacterial activity against Helicobacter pylori ATCC 43504 assessed as reduction in bacterial growth incubated for 24 hrs by broth micro-dilution method. The series is classed as functional.

pIC50: −log10 of the molar value. Values after ≈ are worked out from the molar mass of the structure shown.

A word on the IC50: it is the concentration at which inhibition is half-maximal. In general, pIC50 refers to −log10 of the IC50, conventionally taken in molar units. In series [1], `Clc1ccc(-c2cc(-c3ccco3)no2)c(Cl)c1` yielded an IC50 of 42.41 µg/mL (≈ 151 µM). In addition, in [2], the negative logarithm of the IC50 (pIC50) is 5.09.
With `CCCc1ccc([C@H]2N[C@@H](C(=O)OC)Cc3c2[nH]c2ccccc32)cc1`, the pIC50 in series [3] was 4.50. Besides, the Activity with Mus musculus and in the series with Rattus norvegicus [4] was 81.2% each time.
For `O=C(CSc1nc2ccccc2[nH]1)n1nc(Nc2ccc(O)cc2)cc1-c1ccccc1`, the Activity in the series on Rattus norvegicus [5] was 83.1%.
As usually defined, the LD50 is the dose at which mortality reaches 50%. With `COc1cc(/C=N/NC(=O)Cc2ccccc2Nc2c(Cl)cccc2Cl)cc(OC)c1O`, the LD50 in series [6] is 168 mg/kg.
Regarding `CCc1c(O)c(O)c2c(c1O)C(=O)C(O)=C(O)C2=O`, the results for the Activity in the series on Rattus norvegicus [7] and with Rattus norvegicus [8] were 75.5% and 73.51%, respectively.
By MIC is commonly meant the lowest concentration found to suppress growth. With `C=CCS[S+]([O-])CC=C` (stereo unspecified) [ALLICIN], the minimal inhibitory concentration (MIC) in the series on Helicobacter pylori [9] is 4 µg/mL (≈ 24.6 µM); with Helicobacter pylori [10] it was 6 µg/mL (≈ 37 µM).
